# US20250188069A1, “COMPOUNDS AND METHODS FOR DEGRADING CASEIN KINASE 1 ALPHA” (PIN THERAPEUTICS, INC., priority 2022, published 2025)
# Structures can show the parent of a compound that is named as a salt. Where two headings read alike, the source gives them in different places.
# Key:
# CK1α = CK1α (Homo sapiens, UniProt P48729+Q96SW2); assay: CK1α degradation, flow cytometry in MV4-11 cells; assay type: cell-based; parameters: CK1α levels were determined in MV-4-11 cells using Jess (Protein Simple); host or cells: MV-4-11; settings: % reduction of CK1α compared to DMSO, MV4-11 cells at 316 nM for 16 hours, read-out: CK1α degradation classification
# Method: MV-4-11 cells were obtained from ATCC and grown in IMDM supplemented with 10% FBS. The cells were maintained at 37° C. under 5% CO2.
# Compounds of the present disclosure were added to cells (final DMSO concentration of 0.5%) and incubated for 16 hours. CK1α level was determined in MV4-11 cells using flow cytometry (Luminex, Guava EasyCyte Plus). Briefly, cells were prepared with sequential 10% formalin and 70% methanol fixation. […] GuavaSoft Incyte software was used to analyse the flow cytometry data. Protein levels relative to DMSO are calculated for CK1α.
# The efficacy of CK1α degradation of other part of compounds of the present disclosure was determined by treating MV4-11 cells at […] (Final DMSO concentration of 0.5%) for 16 hours. Protein levels relative to DMSO are calculated for CK1α.
# Protein levels relative to DMSO are calculated for CK1α.
# MV-4-11 cells = assay: AML cell viability assay (RealTime-Glo); assay type: cell-based; settings: Homo sapiens, read-out: Cell viability classification
# [1] = MV4-11, IC50 class, MV-4-11 cells, RealTime-Glo after 44 hrs of treatment (TABLE 3)
# [2] = MV4-11, IC50 class, MV-4-11 cells, RealTime-Glo after 44 hrs of treatment (TABLE 4)
# Sequence of CK1α (P48729 whole entry): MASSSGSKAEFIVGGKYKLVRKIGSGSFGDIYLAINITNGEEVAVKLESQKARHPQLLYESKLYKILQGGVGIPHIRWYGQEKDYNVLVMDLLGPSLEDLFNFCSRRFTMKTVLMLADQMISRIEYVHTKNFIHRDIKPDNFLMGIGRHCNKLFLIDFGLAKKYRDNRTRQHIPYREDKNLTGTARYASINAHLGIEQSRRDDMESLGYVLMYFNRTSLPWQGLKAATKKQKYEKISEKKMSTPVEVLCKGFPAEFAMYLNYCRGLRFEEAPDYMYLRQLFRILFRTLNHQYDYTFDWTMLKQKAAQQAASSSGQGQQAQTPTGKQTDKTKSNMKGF
# Sequence of CK1α (Q96SW2 whole entry): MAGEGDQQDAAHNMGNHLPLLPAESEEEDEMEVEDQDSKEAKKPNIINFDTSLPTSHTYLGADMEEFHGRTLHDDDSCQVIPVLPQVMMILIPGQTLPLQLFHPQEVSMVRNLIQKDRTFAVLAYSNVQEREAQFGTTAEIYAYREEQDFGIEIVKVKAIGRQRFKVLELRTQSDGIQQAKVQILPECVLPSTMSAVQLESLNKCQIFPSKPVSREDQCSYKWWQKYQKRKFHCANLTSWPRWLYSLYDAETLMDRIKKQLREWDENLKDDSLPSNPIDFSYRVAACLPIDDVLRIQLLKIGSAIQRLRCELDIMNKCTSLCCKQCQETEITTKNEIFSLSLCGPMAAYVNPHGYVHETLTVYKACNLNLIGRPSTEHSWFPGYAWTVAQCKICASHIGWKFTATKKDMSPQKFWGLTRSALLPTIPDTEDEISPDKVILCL
# Sequence of CK1α (Q16531 whole entry partner): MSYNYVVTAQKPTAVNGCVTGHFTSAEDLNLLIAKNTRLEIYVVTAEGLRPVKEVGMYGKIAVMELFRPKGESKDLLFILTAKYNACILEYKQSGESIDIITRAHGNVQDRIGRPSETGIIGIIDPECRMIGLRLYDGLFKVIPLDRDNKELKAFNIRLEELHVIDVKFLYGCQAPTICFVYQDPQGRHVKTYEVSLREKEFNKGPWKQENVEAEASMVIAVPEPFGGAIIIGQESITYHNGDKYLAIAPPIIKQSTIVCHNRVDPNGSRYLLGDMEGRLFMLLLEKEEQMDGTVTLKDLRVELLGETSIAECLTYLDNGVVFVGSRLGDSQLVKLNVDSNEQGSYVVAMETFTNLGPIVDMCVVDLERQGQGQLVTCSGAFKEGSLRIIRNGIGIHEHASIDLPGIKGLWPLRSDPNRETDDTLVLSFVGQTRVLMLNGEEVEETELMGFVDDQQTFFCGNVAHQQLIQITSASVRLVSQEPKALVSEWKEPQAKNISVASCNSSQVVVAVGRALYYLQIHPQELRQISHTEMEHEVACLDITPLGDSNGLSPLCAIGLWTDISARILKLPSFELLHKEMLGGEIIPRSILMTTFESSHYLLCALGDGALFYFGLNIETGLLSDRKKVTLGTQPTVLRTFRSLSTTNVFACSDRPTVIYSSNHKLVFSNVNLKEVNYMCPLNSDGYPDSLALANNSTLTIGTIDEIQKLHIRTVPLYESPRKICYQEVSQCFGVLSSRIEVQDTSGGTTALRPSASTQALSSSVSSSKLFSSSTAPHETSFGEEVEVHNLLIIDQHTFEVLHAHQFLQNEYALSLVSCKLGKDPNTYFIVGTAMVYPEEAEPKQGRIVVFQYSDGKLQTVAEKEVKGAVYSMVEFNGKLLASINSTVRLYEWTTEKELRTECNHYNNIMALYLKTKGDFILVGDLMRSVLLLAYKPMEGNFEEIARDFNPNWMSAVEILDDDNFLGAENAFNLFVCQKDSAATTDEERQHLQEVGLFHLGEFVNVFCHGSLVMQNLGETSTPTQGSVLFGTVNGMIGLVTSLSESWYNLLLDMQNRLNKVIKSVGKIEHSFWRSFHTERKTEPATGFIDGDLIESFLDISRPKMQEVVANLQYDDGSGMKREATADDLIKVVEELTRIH
Dmax at 0.316 µM (CK1α) [%],IC50 (MV-4-11 cells; [1]) [nM],IC50 (MV-4-11 cells; [2]) [nM],"IC50 (MV-4-11 cells; MV4-11, IC50 class, MV-4-11 cells, RealTime-Glo after 44 hrs of treatment (TABLE 1)) [nM]",SMILES,"IC50 (MV-4-11 cells; MV4-11, 44 h) [nM]"
< 50,> 1000,,,"N[C@H]1CC[C@H](N(CCCN2CCNCC2)c2cccc3c2CN(C2CCC(=O)NC2=O)C3=O)CC1 (some centres unmarked) [Compound 245, 3-(4-(((1r,4r)-4-aminocyclohexyl)(3-(piperazin-1-yl)propyl)amino)-1-oxoisoindolin-2-yl)piperidine-2,6-dione, 3HCl]",
> 75,< 100,,,"CCCCCN(c1cccc2c1CN(C1CCC(=O)NC1=O)C2=O)[C@@H]1CC[C@@H](CN)C1 (stereo partly drawn) [Compound 325, 3-(4-(((1R,3R)-3-(aminomethyl)cyclopentyl)(pentyl)amino)-1-oxoisoindolin-2-yl)piperidine-2,6-dione HCl salt]",
< 50,> 1000,,,"N[C@H]1CC[C@H](N(CCN2CCOCC2)c2cccc3c2CN(C2CCC(=O)NC2=O)C3=O)CC1 (some centres unmarked) [Compound 244, 3-(4-(((1r,4r)-4-aminocyclohexyl)(2-morpholinoethyl)amino)-1-oxoisoindolin-2-yl)piperidine-2,6-dione, 2HCl]",
< 50,> 1000,,,"N[C@H]1CC[C@H](N(CCCN2CCOCC2)c2cccc3c2CN(C2CCC(=O)NC2=O)C3=O)CC1 (some centres unmarked) [Compound 246, 3-(4-(((1r,4r)-4-aminocyclohexyl)(3-morpholinopropyl)amino)-1-oxoisoindolin-2-yl)piperidine-2,6-dione dihydrochloride]",
> 75,< 100,,,"N[C@H]1CC[C@H](N(CCC2CC2)c2cccc3c2CN(C2CCC(=O)NC2=O)C3=O)CC1 (some centres unmarked) [Compound 237, 3-(4-(((1r,4r)-4-aminocyclohexyl)(2-cyclopropylethyl)amino)-1-oxoisoindolin-2-yl)piperidine-2,6-dione, HCl]",
< 50,> 1000,,,"N[C@H]1CC[C@H](N(CCN2CCNCC2)c2cccc3c2CN(C2CCC(=O)NC2=O)C3=O)CC1 (some centres unmarked) [Compound 243, 3-(4-(((1r,4r)-4-aminocyclohexyl)(2-(piperazin-1-yl)ethyl)amino)-1-oxoisoindolin-2-yl)piperidine-2,6-dione, 3HCl]",
> 75,100 to 1000,,,"CCCCCN(c1cccc2c1CN(C1CCC(=O)NC1=O)C2=O)[C@H]1CC[C@H](C(=O)NC)CC1 (stereo partly drawn) [Compound 306, (1R,4R)-4-((2-(2,6-dioxopiperidin-3-yl)-1-oxoisoindolin-4-yl)(pentyl)amino)-N-methylcyclohexane-1-carboxamide]",
> 75,< 100,,,"CCCCCN(c1cccc2c1CN(C1CCC(=O)NC1=O)C2=O)[C@@H]1CC[C@H](CN)C1 (stereo partly drawn) [Compound 326, 3-(4-(((1R,3S)-3-(aminomethyl)cyclopentyl)(pentyl)amino)-1-oxoisoindolin-2-yl)piperidine-2,6-dione, Formic Acid salt]",
> 75,< 100,,,"CC(C)(C)CCN(c1cccc2c1CN(C1CCC(=O)NC1=O)C2=O)[C@H]1CC[C@H](N)CC1 (stereo partly drawn) [Compound 267, 3-(4-(((1R,4R)-4-aminocyclohexyl)(3,3-dimethylbutyl)amino)-1-oxoisoindolin-2-yl)piperidine-2,6-dione hydrochloride]",
50 to 75,100 to 1000,,,"NC[C@]1(O)CC[C@H](N(CCC2CC2)c2cccc3c2CN(C2CCC(=O)NC2=O)C3=O)CC1 (some centres unmarked) [Compound 523, 3-(4-(((1r,4r)-4-(aminomethyl)-4-hydroxycyclohexyl)(2-cyclopropylethyl)amino)-1-oxoisoindolin-2-yl)piperidine-2,6-dione]",
> 75,< 100,,,"NC[C@@H]1CC[C@@H](N(CCC2CC2)c2cccc3c2CN(C2CCC(=O)NC2=O)C3=O)C1 (stereo partly drawn) [Compound 325A, 3-(4-(((1R,3R)-3-(aminomethyl)cyclopentyl)(2-cyclopropylethyl)amino)-1-oxoisoindolin-2-yl)piperidine-2,6-dione, HCl]",
< 50,> 1000,,,"N[C@H]1CC[C@H](N(CCCC2CCNCC2)c2cccc3c2CN(C2CCC(=O)NC2=O)C3=O)CC1 (some centres unmarked) [Compound 241, 3-(4-(((1r,4r)-4-aminocyclohexyl)(3-(piperidin-4-yl)propyl)amino)-1-oxoisoindolin-2-yl)piperidine-2,6-dione, 2HCl]",
50 to 75,100 to 1000,,,"O=C1CCC(N2Cc3c(cccc3N(CCCC(F)(F)F)[C@H]3CC[C@H](NC4COC4)CC3)C2=O)C(=O)N1 (some centres unmarked) [Compound 514, 3-(1-oxo-4-{[(1r,4r)-4-(oxetan-3-ylamino)cyclohexyl](4,4,4-trifluorobutyl)amino}-3H-isoindol-2-yl)piperidine-2,6-dione]",
,,,100 to 1000,"NC(=O)[C@H]1CC[C@@H](N(CCCC2CCOCC2)c2cccc3c2CN(C2CCC(=O)NC2=O)C3=O)C1 (stereo partly drawn) [Compound 361, (1S,3R)-3-((2-(2,6-dioxopiperidin-3-yl)-1-oxoisoindolin-4-yl)(3-(tetrahydro-2H-pyran-4-yl)propyl)amino)cyclopentane-1-carboxamide]",

# Continued, molecule first:
SMILES,Dmax at 0.316 µM (CK1α) [%],IC50 (MV-4-11 cells; [1]) [nM],IC50 (MV-4-11 cells; [2]) [nM],"IC50 (MV-4-11 cells; MV4-11, IC50 class, MV-4-11 cells, RealTime-Glo after 44 hrs of treatment (TABLE 1)) [nM]","IC50 (MV-4-11 cells; MV4-11, 44 h) [nM]"
"CCCCCN(c1cccc2c1CN(C1CCC(=O)NC1=O)C2=O)[C@H]1CC[C@H](NCCC)CC1 (some centres unmarked) [Compound 312, 3-(1-oxo-4-(pentyl((1r,4r)-4-(propylamino)cyclohexyl)amino)isoindolin-2-yl)piperidine-2,6-dione, HCl]",> 75,< 100,,,
"CCCCCN(c1cccc2c1CN(C1CCC(=O)NC1=O)C2=O)[C@H]1CC[C@H](NC(C)C)CC1 (some centres unmarked) [Compound 310, 3-(4-(((1r,4r)-4-(isopropylamino)cyclohexyl)(pentyl)amino)-1-oxoisoindolin-2-yl)piperidine-2,6-dione, HCl]",50 to 75,< 100,,,
"O=C1CCC(N2Cc3c(cccc3N(CCC3CC3)[C@H]3CC[C@@H](NC4CC(F)(F)C4)CC3)C2=O)C(=O)N1 (some centres unmarked) [Compound 515A, 3-(4-((2-cyclopropylethyl)((1s,4s)-4-((3,3-difluorocyclobutyl)amino)cyclohexyl)amino)-1-oxoisoindolin-2-yl)piperidine-2,6-dione formate]",50 to 75,100 to 1000,,,
"NCC(CCN(CCC1CC1)c1cccc2c1CN(C1CCC(=O)NC1=O)C2=O)C(F)(F)F (centres unmarked) [Compound 519, 3-(4-{[4-amino-3-(trifluoromethyl)butyl](2-cyclopropylethyl)amino}-1-oxo-3H-isoindol-2-yl)piperidine-2,6-dione]",50 to 75,,,,100 to 1000
"O=C1CCC(N2Cc3c(cccc3N(CCC3CC3)[C@H]3CC[C@H](NC4CC(F)(F)C4)CC3)C2=O)C(=O)N1 (some centres unmarked) [Compound 515, 3-(4-((2-cyclopropylethyl)((1r,4r)-4-((3,3-difluorocyclobutyl)amino)cyclohexyl)amino)-1-oxoisoindolin-2-yl)piperidine-2,6-dione formate]",50 to 75,> 1000,,,
"C/C=C\CCN(CCCCN)c1cccc2c1CN(C1CCC(=O)NC1=O)C2=O (centres unmarked) [Compound 94, (Z)-3-(4-((4-aminobutyl)(pent-3-en-1-yl)amino)-1-oxoisoindolin-2-yl)piperidine-2,6-dione]",> 75,< 100,,,
"O=C1CCC(N2Cc3c(cccc3N(CCC3CC3)[C@H]3CC[C@@H](NCC(F)F)CC3)C2=O)C(=O)N1 (some centres unmarked) [Compound 539A, 3-{4-[(2-cyclopropylethyl)[(1r,4r)-4-[(2,2-difluoroethyl)amino]cyclohexyl]amino]-1-oxo-3H-isoindol-2-yl}piperidine-2,6-dione]",> 75,< 100,,,
"CC(C)(C)CCN(CCCCN)c1cccc2c1CN(C1CCC(=O)NC1=O)C2=O (centres unmarked) [Compound 223, 3-(4-((4-aminobutyl)(3,3-dimethylbutyl)amino)-1-oxoisoindolin-2-yl)piperidine-2,6-dione]",> 75,< 100,,,
"O=C1CCC(N2Cc3c(cccc3N(CCC3CC3)[C@H]3CC[C@@H](NCC4(F)CCC4)CC3)C2=O)C(=O)N1 (some centres unmarked) [Compound 613A, 3-{4-[(2-cyclopropylethyl)[(1s,4s)-4-{[(1-fluorocyclobutyl)methyl]amino}cyclohexyl]amino]-1-oxo-3H-isoindol-2-yl}piperidine-2,6-dione]",,,100 to 1000,,
"CCCCCN(CCCCNC(=O)CC(C)C)c1cccc2c1CN(C1CCC(=O)NC1=O)C2=O (centres unmarked) [Compound 149, N-(4-((2-(2,6-dioxopiperidin-3-yl)-1-oxoisoindolin-4-yl)(pentyl)amino)butyl)-3-methylbutanamide]",,,,,> 1000
"O=C1CCC(N2Cc3c(cccc3N(CCCCC(F)(F)F)[C@H]3CC[C@@H](NCCC(F)(F)F)CC3)C2=O)C(=O)N1 (some centres unmarked) [Compound 636A, 3-(1-oxo-4-{[(1s,4s)-4-[(3,3,3-trifluoropropyl)amino]cyclohexyl](5,5,5-trifluoropentyl)amino}-3H-isoindol-2-yl)piperidine-2,6-dione; trifluoroacetate]",,,> 1000,,
"O=C1CCC(N2Cc3c(cccc3N(CCC3CC3)[C@H]3CC[C@@H](c4nnc[nH]4)CC3)C2=O)C(=O)N1 (some centres unmarked) [Compound 573, 3-{4-[(2-cyclopropylethyl)[(1s,4s)-4-(4H-1,2,4-triazol-3-yl)cyclohexyl]amino]-1-oxo-3H-isoindol-2-yl}piperidine-2,6-dione; formate]",,,< 100,,
